Reference: patent US12558405B2, “Pharmaceutical composition using endogenous cells for preventing or treating musculoskeletal disorders” (SEOUL NATIONAL UNIVERSITY R&DB FOUNDATION, priority 2019, dated 2026)

B1: G-CSF: positive control of chemotaxis, 100 ng/mL (protein, UniProt P09919 31-207, looked up)
Granulocyte …: TPLGPASSLPQSFLLKCLEQVRKIQGDGAALQEKLVSECATYKLCHPEELVLLGHSLGIPWAPLSSCPSQALQLAGCLSQLHSGLFLYQGLLQALEGISPELGPTLDTLQLDVADFATTIWQQMEELGMAPALQPTQGAMPAFASAFQRRAGGVLVASHLQSFLEVSYRVLRHLAQP

Columns and labels:
bone marrow stem cells [1] = assay: Chemotaxis of stem cells, Boyden chamber assay; format: cell-based; conditions: 24 hours; control group (antibiotic) = 100.00; composition 10% of medium volume, positive controls 100 ng/mL
Description: 1×10^4 bone marrow stem cells were seeded onto an upper insert of a transwell and cultured for 24 hours in LG DMEM containing an antibiotic (HyClone, Thermo Fisher Scientific Inc., Waltham, MA, USA). […] LG DMEM not containing FBS was used as a negative control group, and G-CSF 100 ng/mL, SDF-1α 100 ng/mL and IL-1β 100 ng/mL were compared as positive control groups of chemotaxis. In order to count the cells that migrated from the insert to the bottom, the cells remaining on the insert was removed 24 hours later and only the cells at the bottom were left. After fixing with 4% paraformaldehyde and staining with crystal violet, the cells were observed under a microscope. For quantification of the cells that migrated to the bottom, OD540 was measured after dissolving the crystal violet with acetic acid. All experiments were repeated 3 times.

bone marrow stem cells [2] = assay: Chemotaxis of stem cells, agarose chemotaxis assay; format: cell-based; conditions: 72 hours; control group (antibiotic) = 100.00; composition 50% of medium volume, positive controls 100 ng/mL
Description: First, after preparing 0.8% agarose gel on a 6-well plate, three holes were perforated in each well with intervals of 5 mm using a 5-mm skin biopsy punch. 1×10^4 bone marrow stem cells were dispensed into LG DMEM containing 10% FBS and an antibiotic at the center. After waiting for 5 hours until the cells were attached, the medium was replaced with LG DMEM containing the antibiotic only. […] In addition, G-CSF 100 ng/mL, SDF-1α 100 ng/mL and IL-1β 100 ng/mL were treated for comparison as positive control groups of chemotaxis. 72 hours later, the cells were fixed with 4% paraformaldehyde, stained with DAPI and observed with a fluorescence microscope. The cells that migrated to the left and right sides were imaged with the fluorescence microscope. The number of cells that migrated 100 μm or longer from the end of each hole was counted. All experiments were repeated 3 times.

Row | Molecule | Number of migrated cells (bone marrow stem cells [1]) | Number of migrated cells (bone marrow stem cells [2])
1 | IL-1β: positive control of chemotaxis, 100 ng/mL | 358.85 ± 271.58 | 314.13 ± 220.72
2 | SDF-1α: positive control of chemotaxis, 100 ng/mL | 365.28 ± 280.55 | 466.68 ± 348.04
3 | B1 | 415.01 ± 338.54 | 393.76 ± 280.52
